In patent US20250041279A1, “THERAPEUTIC MEDICINE FOR HEART DISEASE OR SKELETAL MUSCLE DISEASE” (SHIONOGI & CO., LTD., priority 2021, published 2025):

Assays:
ZDF rats = assay: Lipid in skeletal muscle cells (IMCL) in diabetes model rats, MRS; assay type: in vivo; conditions: oral twice a day (7 mg/kg then 10 or 23 mg/kg), 24 hours after first administration
Protocol: In order to examine the influence of Compound I-12 on lipid in skeletal muscle cells (IMCL) of diabetic model rats, vehicle or Compound I-12 was orally administered to a spontaneous diabetes model (ZDF rats) twice a day (first morning administration: 7 mg/kg; second afternoon administration: 10 or 23 mg/kg), and 24 hours after the first administration, MR spectroscopy (MRS) data of the tibialis anterior muscle were measured using animal MRI (Varian MRI System 7T/210, Agilent Technologies) under isoflurane anesthesia. The measurement data was analyzed using software for quantitative analysis of MRS data (LCModel), and the quantity of IMCL was calculated as a creatine ratio.

recombinant human ACC1 = recombinant human ACC1 (Homo sapiens (Human), UniProt Q13085); assay: Measurement of inhibitory activity of human ACC1 (MALDI-TOF MS); assay type: biochemical; conditions: read-out: IC50 hACC1
Text: A cDNA encoding human ACC1 protein (1 amino acid residue to 2346 amino acid residues from the N-terminus) was cloned from a human liver cDNA library (BioChain Institute Inc.), myc tag and His-tag sequences were introduced at the 3′ end, and then inserted into pIEXBAC3 (Novagen). A recombinant baculovirus was produced in accordance with the protocol for Flash BACGOLD (Oxford Expression Technologies Ltd.), and Sf-9 cells were infected therewith to express human ACC1 protein. The recovered cells were crushed, filtered through a filter, and then subjected to Ni affinity chromatography and anion exchange chromatography. Fractions containing human ACC1 protein were collected to obtain recombinant human ACC1.
The recombinant human ACC1 and the recombinant human ACC2 obtained from the above Preparation Examples were preincubated in an assay buffer (50 mM HEPES-KOH (pH 7.4), 10 mM magnesium chloride, 6 to 10 mM potassium citrate, 4 mM glutathione reduced form, and 1.5 mg/ml bovine serum albumin) for 1 hour. Then, 5 μL of the pre-incubated enzyme solution and 5 μL of a substrate solution (50 mM HEPES-KOH (pH 7.4), 1 mM ATP, 0.8 mM acetyl-CoA, and 25 to 50 mM potassium bicarbonate) were added to a 384-well microplate into which 0.2 μl of each of solutions of the compound of the present invention (DMSO had been dispensed, and the mixture was centrifuged and shaken, and then incubated in a wet box at room temperature for 1 to 3 hours. After incubation, the enzymatic reaction was stopped by addition of EDTA, and then the sample was co-crystallized with an α-cyano-4-hydroxy cinnamic acid (CHCA) matrix on a MALDI target plate, and measurement was performed in a reflector negative mode using a matrix-assisted laser desorption ionization-time-of-flight mass spectrometer (MALDI-TOF MS). Deprotonated ions of the substrate acetyl-CoA (AcCoA) and the reaction product malonyl-CoA (MalCoA) were detected, and the intensity of each signal was used to calculate a conversion rate to malonyl-CoA or succinyl-CoA, i.e., intensity of [MalCoA-H]—/(intensity of [MalCoA-H]-+intensity of [AcCoA.H].). […] The potassium citrate concentration in the assay buffer, the potassium bicarbonate concentration in the substrate solution, and the incubation time were adjusted within the above concentrations or reaction times for each lot of the enzyme to be used.

[1] = system: leptin receptor deficient mice (db/db mice); assay: Lipid in skeletal muscle cells (IMCL) in diabetes model mice, MRS; assay type: in vivo; conditions: 15 mg/kg single oral, 6 hours after administration
Protocol: (§1) In order to examine the influence of Compound I-12 on lipid in skeletal muscle cells (IMCL) of diabetes model mice, 6 hours after a single oral administration of a vehicle or Compound I-12 (15 mg/kg) to leptin receptor deficient mice (Leprdb/Leprdb, db/db; db/db mice), MR spectroscopy (MRS) data of the tibialis anterior muscle was measured using animal MRI (Varian MRI System 7T/210, Agilent Technologies) under isoflurane anesthesia. The measurement data was analyzed using software for quantitative analysis of MRS data (LCModel), and the quantity of IMCL was calculated as a creatine ratio.

Atgl knockout mice = assay: Spontaneous motility of Atgl knockout mice; assay type: in vivo; conditions: 45 mg/kg/10 mL repeated administration, 12 weeks of age, p<0.05, Welch's t test
Protocol: Atgl (adipose-triglyceride lipase) knockout mice are known as non clinical models of TGCV. Atgl knockout mice (KO mice) deficient in the Atgl gene were each produced by a known method.
In order to examine the influence of the compounds of the present invention on spontaneous motility, spontaneous motility of Atgl knockout mice was measured using SCANET MV-40 ([…]) at 12 weeks of age after repeated administration of vehicle or the compounds of the present invention to the Atgl knockout mice. The mice were allowed to stand in a cage placed in the device, and the motility thereof for 30 minutes was measured.

SD rats = assay: Lipid in skeletal muscle cells (IMCL) in SD rats, MRS; assay type: in vivo; conditions: 20 mg/kg single oral, 24 hours after administration
Protocol: as §1, with “I-13” for “I-12”, “(IMCL), 24” for “(IMCL) of diabetes model mice, 6”, “I-13 (20” for “I-12 (15”, “SD rats,” for “leptin receptor deficient mice (Leprdb/Leprdb, db/db; db/db mice),”

IC50 (recombinant human ACC1) [µM]	SMILES	IMCL (creatine ratio), tibialis anterior muscle (ZDF rats)	IMCL (creatine ratio), tibialis anterior muscle [1]	spontaneous motility (30 minutes) (Atgl knockout mice)	IMCL (creatine ratio), tibialis anterior muscle (SD rats)
6.9	C[C@@H](COC1CCC(Oc2nc3c(F)cc(OC4CC4)cc3n2C)CC1)NC(N)=O (stereo partly drawn) [Compound I-12]	significant IMCL decreasing effect	significant IMCL decreasing effect		
0.91	CC(=O)N[C@@H](C)CCC1OCC(Oc2nc3c(F)c(OC4CC4)ccc3n2C)CO1 (stereo partly drawn) [Compound I-13]			significant improving effect	significant IMCL decreasing effect
